Results on 6 molecules are retold here after paper PMC5430831 (Acta Pharmaceutica Sinica. B, 2017).

The IC50 is the concentration that gives 50% inhibition.

For one assay, the target named is MNK2 (Homo sapiens, UniProt Q9HBH9). The assay can be described thus: Radioactive filter binding kinase assay, MNK2. The conditions noted are these: read-out: percent inhibition MNK2.
A further assay addresses CHK2 (Homo sapiens, UniProt O96017). The assay can be described thus: Radioactive filter binding kinase assay, CHK2. The class given is biochemical.
In assay [1] the test system is HL-60 cells. Kind of assay: Mitochondrial membrane potential measurement. Format: cell-based, Human. To be noted: HL-60, 10 μmol/L, JC-1, from 6 h.
The next assay addresses VEGFR1 (Homo sapiens, UniProt P17948). The assay can be described thus: Radioactive filter binding kinase assay, VEGFR1. Format: biochemical.
Assay [2] has as its system HL-60 cells. The assay can be described thus: LDH release assay. Format: cell-based, Human. For orientation: Release of lactate dehydrogenase indicates damage to the cell membrane.
A further assay deals with caspase-3. The assay can be described thus: Caspase-3 colorimetric activity assay. The class given is cell-based, Human. The conditions noted are these: HL-60, 10 μmol/L, 48 h.
The target in another assay is Aurora B (Homo sapiens, UniProt Q96GD4). The assay can be described thus: Radioactive filter binding kinase assay, Aurora B. To be noted: read-out: percent inhibition Aurora B.
Chain of Aurora B (Q96GD4 whole entry): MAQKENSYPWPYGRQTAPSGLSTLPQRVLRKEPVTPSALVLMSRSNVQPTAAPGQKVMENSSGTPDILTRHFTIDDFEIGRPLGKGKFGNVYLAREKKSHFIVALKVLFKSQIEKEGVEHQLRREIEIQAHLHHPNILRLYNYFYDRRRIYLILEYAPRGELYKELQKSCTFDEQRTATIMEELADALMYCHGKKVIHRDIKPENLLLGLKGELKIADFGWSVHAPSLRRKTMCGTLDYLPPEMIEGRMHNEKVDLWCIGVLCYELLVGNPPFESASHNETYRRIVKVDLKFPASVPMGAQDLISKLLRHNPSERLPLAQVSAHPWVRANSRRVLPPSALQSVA
Assay [3] relates to HL-60 cells. The assay can be described thus: Drug accumulation assay. The class given is cell-based, Human. To be noted: HL-60, 2 h incubation, emission 446 nm.
The test system of assay [4] is HL-60 cells. Kind of assay: Annexin V-FITC/propidium iodide labeling, confocal imaging. The conditions noted are these: HL-60, 5 and 10 μmol/L, 48 h. The class given is cell-based, Human.
In assay [5] the test system is HL-60 cells. The assay can be described thus: Cell cycle analysis by flow cytometry. The class given is cell-based, Human. On the technique in general: Flow cytometry measures light scatter and fluorescence of single cells or particles in a stream.
The next assay deals with MOLT-4 cells. To be noted: MOLT-4 cells ref 16; cited from earlier work.
[6] abbreviates: read-out: IC50 CHK2, mean±SD (n=3).
[7] abbreviates: read-out: IC50 VEGFR1, mean±SD (n=3).

Each structure is given as a SMILES string. Read-outs that look alike come from different tables or passages of the source.

Chain of VEGFR1 (P17948 27-1338, species assumed): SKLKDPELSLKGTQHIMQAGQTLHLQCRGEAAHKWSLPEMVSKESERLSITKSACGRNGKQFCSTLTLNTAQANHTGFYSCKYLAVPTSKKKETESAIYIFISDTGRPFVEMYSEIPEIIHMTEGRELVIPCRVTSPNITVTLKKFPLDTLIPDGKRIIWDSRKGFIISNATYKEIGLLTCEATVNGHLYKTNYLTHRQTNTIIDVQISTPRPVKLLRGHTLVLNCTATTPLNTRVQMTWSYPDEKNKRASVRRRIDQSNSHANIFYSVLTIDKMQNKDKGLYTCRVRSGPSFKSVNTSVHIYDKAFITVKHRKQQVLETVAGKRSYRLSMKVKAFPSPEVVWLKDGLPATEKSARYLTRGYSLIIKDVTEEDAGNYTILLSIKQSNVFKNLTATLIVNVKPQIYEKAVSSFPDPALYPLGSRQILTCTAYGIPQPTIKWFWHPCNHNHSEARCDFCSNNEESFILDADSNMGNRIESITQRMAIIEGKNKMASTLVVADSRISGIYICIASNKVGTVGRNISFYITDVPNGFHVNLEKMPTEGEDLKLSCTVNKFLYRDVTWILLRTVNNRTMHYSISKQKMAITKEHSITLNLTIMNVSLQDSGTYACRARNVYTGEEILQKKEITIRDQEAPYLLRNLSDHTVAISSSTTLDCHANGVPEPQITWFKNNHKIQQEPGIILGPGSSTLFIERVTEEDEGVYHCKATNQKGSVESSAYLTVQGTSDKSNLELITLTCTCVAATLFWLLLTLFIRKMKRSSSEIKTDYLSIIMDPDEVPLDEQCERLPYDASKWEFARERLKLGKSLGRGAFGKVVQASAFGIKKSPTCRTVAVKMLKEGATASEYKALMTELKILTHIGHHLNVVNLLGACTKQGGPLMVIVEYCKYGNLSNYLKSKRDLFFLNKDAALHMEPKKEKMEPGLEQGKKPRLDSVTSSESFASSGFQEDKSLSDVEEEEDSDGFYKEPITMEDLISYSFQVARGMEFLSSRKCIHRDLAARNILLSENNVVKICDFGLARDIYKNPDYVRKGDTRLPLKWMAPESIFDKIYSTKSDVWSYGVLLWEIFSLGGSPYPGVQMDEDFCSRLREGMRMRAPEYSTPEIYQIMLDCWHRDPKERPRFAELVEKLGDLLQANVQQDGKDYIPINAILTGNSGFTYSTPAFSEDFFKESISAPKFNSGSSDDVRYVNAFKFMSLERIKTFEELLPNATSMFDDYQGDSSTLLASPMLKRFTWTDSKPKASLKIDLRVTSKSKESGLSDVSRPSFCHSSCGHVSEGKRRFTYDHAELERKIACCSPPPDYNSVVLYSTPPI
Chain of CHK2 (O96017 whole entry, species assumed): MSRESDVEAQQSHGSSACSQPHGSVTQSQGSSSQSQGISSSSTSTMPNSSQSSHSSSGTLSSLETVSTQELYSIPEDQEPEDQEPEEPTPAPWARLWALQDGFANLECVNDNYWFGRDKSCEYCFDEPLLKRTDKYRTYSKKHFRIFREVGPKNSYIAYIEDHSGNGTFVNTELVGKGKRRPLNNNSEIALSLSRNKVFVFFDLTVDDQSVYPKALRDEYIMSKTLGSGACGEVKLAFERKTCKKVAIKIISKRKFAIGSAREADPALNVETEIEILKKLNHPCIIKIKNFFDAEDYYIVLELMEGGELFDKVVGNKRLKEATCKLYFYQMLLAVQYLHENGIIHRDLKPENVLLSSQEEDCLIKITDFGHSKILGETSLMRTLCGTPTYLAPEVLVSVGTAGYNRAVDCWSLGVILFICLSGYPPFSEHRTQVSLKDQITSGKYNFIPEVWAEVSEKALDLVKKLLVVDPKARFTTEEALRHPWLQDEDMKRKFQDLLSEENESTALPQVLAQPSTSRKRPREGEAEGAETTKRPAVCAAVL
Chain of MNK2 (Q9HBH9 whole entry, species assumed): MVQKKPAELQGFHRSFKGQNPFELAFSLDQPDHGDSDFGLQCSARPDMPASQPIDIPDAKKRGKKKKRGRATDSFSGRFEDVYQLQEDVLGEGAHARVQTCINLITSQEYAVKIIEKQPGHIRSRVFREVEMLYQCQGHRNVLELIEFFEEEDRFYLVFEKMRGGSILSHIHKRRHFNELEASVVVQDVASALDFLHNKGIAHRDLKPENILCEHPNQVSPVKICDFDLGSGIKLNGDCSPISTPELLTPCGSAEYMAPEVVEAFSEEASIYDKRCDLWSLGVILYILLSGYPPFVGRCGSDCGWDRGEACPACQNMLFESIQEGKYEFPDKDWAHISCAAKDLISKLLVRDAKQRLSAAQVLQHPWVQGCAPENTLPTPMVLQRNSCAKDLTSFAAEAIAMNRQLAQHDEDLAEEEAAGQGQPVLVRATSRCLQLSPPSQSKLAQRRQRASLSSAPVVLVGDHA

On to `CCCCNc1ncnc2c1sc1nc3ccccc3cc12` [BPTQ, 4-butylaminopyrimido[4′,5′:4,5]thieno(2,3-b)quinoline], for which the activity at 1 µM on MNK2 was found to be 79%; at CHK2 (read-out: percent inhibition CHK2), 40%; on VEGFR1 (read-out: percent inhibition VEGFR1), 44%; at Aurora B it was 74%. Moreover, the “Mitochondrial membrane potential (ΔΨm)” value in the assay on HL-60 cells [1] is reported as “striking fall in the membrane potential”. Besides, the LDH release result with HL-60 cells [2] (HL-60, 10 μmol/L) was “did not induce LDH release”; in the assay on HL-60 cells [2] (HL-60, 50 μmol/L), “increased the release of LDH”; in the assay on HL-60 cells [2] (HL-60, 100 μmol/L), “increased the release of LDH”. Besides, the “Increase in caspase-3 activity relative to control” value with caspase-3 was “about 2 fold”. In addition, in the assay on HL-60 cells [3], the Intracellular drug uptake entry is recorded as “dose dependent increase in the intracellular drug uptake”. The “Annexin V-FITC / propidium iodide staining (apoptosis)” value in the assay on HL-60 cells [4] is “confirming the induction of apoptosis”. Also, the “Sub G0/G1 cells” value with HL-60 cells [5] (HL-60, 10 μmol/L, 48 h) worked out at 47%. In the assay with HL-60 cells [5] (HL-60, 48 h), the Cell cycle arrest result is given as “did not induce any cell cycle arrest”. Moreover, the Cell cycle effect result in the assay with MOLT-4 cells was “cell cycle arrest was observed”.

Turning to `O=C1Nc2ccccc2/C1=C1/Nc2ccccc2C1=O` [Indirubin], the IC50 on CHK2 came out at 81 ± 19 nM; at VEGFR1 it was 42 ± 12 nM.

For `COC(=O)[C@@]1(O)C[C@H]2O[C@]1(C)n1c3ccccc3c3c4c(c5c6ccccc6n2c5c31)C(=O)NC4` [K252a], the IC50 at CHK2 (setting [6]) was found to be 23 ± 5 nM; on VEGFR1 (setting [7]), 13 ± 2 nM.

For `O=c1c(O)c(-c2cc(O)c(O)c(O)c2)oc2cc(O)cc(O)c12` [Myricetin], the IC50 on VEGFR1 stood at 779 ± 173 nM.

Take `Cn1cc(C2=C(c3cn(CCCSC(=N)N)c4ccccc34)C(=O)NC2=O)c2ccccc21` [Ro318220]: the IC50 was 1070 ± 210 nM at CHK2 (setting [6]) and 120 ± 14 nM at VEGFR1 (setting [7]).

As for `Oc1c2ccccc2c2c3c(cccc13)N=N2` [SP600125], the IC50 at CHK2 was found to be 304 ± 94 nM; on VEGFR1 it was 335 ± 74 nM.
